Patent US20160346249A1 (priority 2012, published 2016)

Key:
[1] = test system: FMO, human liver microsome (HLM); assay: FMO dependent metabolism (pre-incubation temperature), human liver microsomes; details: HLM, positive control
Protocol: (§1) The microsomal incubation mixtures (ca. 0.2 mL) were prepared in triplicate in 0.1M potassium phosphate buffer (pH 7.4) containing 0.25 mg/mL microsomal protein (RLM and HLM), 1 mM EDTA, 4 mM MgCl2, and […]. Incubation mixtures were pre-incubated aerobically in a shaking water bath at 37° C. and 45° C. respectively for ca. 5 minutes. The reaction was initiated by the addition of NADPH (final concentration of 1 mM). […] For the positive controls, benzydamine (Sigma-Aldrich, St. Louis, Mo.) (final concentration 200 μM) was used in the incubation mixture. For the negative controls, water was used in the incubation mixtures instead of microsome protein. The mixtures were kept at ca. −20° C. before analysis by LC-MS/MS.
(§2) The incubation of benzydamine (positive control, 200 μM) was carried out concurrently and the formation of benzydamine N-oxide was monitored by LC-MS/MS.

[2] = test system: FMO, rat liver microsome (RLM); assay: FMO dependent metabolism (pre-incubation temperature), rat liver microsomes; details: for formation from benzydamine 200 μM, AUC ratio to internal standard (mean ± SD): RLM, positive control
Protocol: as §1, §2

[3] = In vitro metabolism in human hepatocytes; details: 100 μM
Protocol: Cryopreserved human hepatocytes (male) that are prepared by XenoTech, LLC (Lenexa, Kans.), are thawed on the day of use and resuspended in Waymouth's incubation media. The enzymatic activity of hepatocytes is monitored using 7-ethoxycoumarin and 7-hydroxycoumarin as substrates. […] The incubations are carried out for 4 hours with 1×10^6 viable cells/ml. […] At 0 and 4 hour, cell suspensions are extracted using two volumes of ice cold methanol. After centrifugation, the extracts are stored at −20° C. until further sample processing. The solvent in the samples are dried under a stream of nitrogen, and resuspended in methanol:water (1:1) before analysis.
The extracts of the 4 hour incubation mixture are analyzed by liquid chromatography/electrospray ionization-mass spectrometry (LC/ESI-MS) in the positive and negative ion modes to screen for possible metabolites. HPLC Methods 1 and 2 are used to find potential metabolites, and the HPLC and mass spectrometry systems are described in Table 56. The same instrumentation and methods in HPLC Method 1 are used in HPLC Method 2 with the exception that the mobile phases and gradient are changed to 0.4% HCOOH in H2O for mobile A and CH3OH for mobile phase B. The mass spectrometer is LCQ™ Ion Trap Mass Spectrometer and is in either the positive or negative electrospray mode with the ion spray set at 4.5 kV. The capillary temperature is 250° C., the nitrogen sheath gas flow rate is ˜80 unit, the auxiliary nitrogen gas flow rate is 20 unit, and the collision gas is helium.

[4] = eight weeks of treatment; cited from earlier work
CYP2C19 = CYP2C19 (Homo sapiens, UniProt P33261); assay: Inhibition of human CYP activity in microsomes: (S)-mephenytoin 4′-hydroxylation; details: read-out: IC50, CYP2C19 (S)-Mephenytoin 4′-hydroxylation; pooled human liver microsomes; 10 to 30 min at 37° C.
[5] = human, in vivo; cited from earlier work
[6] = NADPH dependent metabolism, human liver microsomes; format: in vitro ADME; details: HLM
Protocol: (§3) Bicifadine (10 μM) was used as the positive control and the formation of the lactam metabolites of bicifadine (M-12) was monitored.

[7] = NADPH dependent metabolism, rat liver microsomes; format: in vitro ADME; details: RLM
Protocol: as §3

Sequence of CYP2C19 (P33261 whole entry): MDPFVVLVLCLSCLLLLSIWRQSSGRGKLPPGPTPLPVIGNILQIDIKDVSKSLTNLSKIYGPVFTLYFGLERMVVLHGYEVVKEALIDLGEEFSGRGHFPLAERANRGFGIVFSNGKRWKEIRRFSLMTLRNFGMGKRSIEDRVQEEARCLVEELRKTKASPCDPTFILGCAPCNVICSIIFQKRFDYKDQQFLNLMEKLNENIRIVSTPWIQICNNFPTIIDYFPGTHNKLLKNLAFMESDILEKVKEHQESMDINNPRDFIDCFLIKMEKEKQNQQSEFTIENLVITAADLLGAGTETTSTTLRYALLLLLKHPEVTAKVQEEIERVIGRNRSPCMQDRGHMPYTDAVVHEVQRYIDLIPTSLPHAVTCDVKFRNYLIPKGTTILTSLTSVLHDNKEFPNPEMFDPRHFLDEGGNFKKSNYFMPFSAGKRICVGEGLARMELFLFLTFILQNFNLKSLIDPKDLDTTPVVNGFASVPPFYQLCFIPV

C[N+](C)([O-])CCCOc1nn(Cc2ccccc2)c2ccccc12 [Benzydamine N-oxide, benzydamine N-oxide]
formation from benzydamine 200 μM, AUC ratio to internal standard (mean ± SD) ([1]; pre-treatment 37° C.): 35.70 ± 0.86
formation from benzydamine 200 μM, AUC ratio to internal standard (mean ± SD) ([1]; pre-treatment 45° C.): 7.68 ± 1.51
formation from benzydamine 200 μM, AUC ratio to internal standard (mean ± SD) ([2]; pre-treatment 37° C.): 75.35 ± 0.75
formation from benzydamine 200 μM, AUC ratio to internal standard (mean ± SD) ([2]; pre-treatment 45° C.): 15.86 ± 1.31

CCOc1ccc2ccc(=O)oc2c1 [7-ethoxycoumarin, reference compound]
metabolized after 4 hours incubation ([3]; male, human, hepatocytes, 4 h): 68.9%

N[C@@H]1CC[C@@H](c2ccc(Cl)c(Cl)c2)c2ccccc21 [SEP-289]
primary efficacy endpoint vs placebo (17-item HAM-D) [4]: did not meet the primary efficacy endpoint compared to placebo

CC[C@@]1(c2ccccc2)C(=O)NC(=O)N(Cc2ccccc2)C1=O [(R)-N-3-benzyl-Phenobarb-ital]
IC50 (CYP2C19): 300 nM

O=c1ccc2ccc(O)cc2o1 [7-hydroxycoumarin, reference compound]
metabolized after 4 hours incubation ([3]; activity control substrate): 99.1%

COC[C@@H]1[C@@H](c2ccc(Cl)c(Cl)c2)C[C@@H]2CC[C@H]1N2 [GSK372475]
benefit in comparison to placebo [5]: failed to demonstrate a significant benefit in comparison to placebo

O=C1NC[C@H]2C[C@@]12c1ccc(Cl)c(Cl)c1 [EB-10101 isomer, (1S,5R)-5-(3,4-dichlorophenyl)-3-azabicyclo[3.1.0]hexan-4-one]
area ratio isomer vs EB-10101 [6]: ca. 25 fold
area ratio isomer vs EB-10101 [7]: ~140 fold
amount formed with 37° C. vs 45° C. pre-treatment ([2]; rat, 30 min, 10 μM, pH 7.4): 7.3 fold
